Results as given in PMC10675597, “Design, Synthesis, and Antisickling Investigation of a Thiazolidine Prodrug of TD-7 That Prolongs the Duration of Action of Antisickling Aromatic Aldehyde” (Pharmaceutics, 2023).

Legend:
[1] = biological target: T1, Hb in human normal whole blood (Homo sapiens, UniProt P69905); experiment: In-vitro time-dependent Hb modification (Hb adduct formation), cation-exchange HPLC; assay type: cell-based; conditions: 2 mM, normal whole blood 30% hematocrit
T1 construct: normal whole blood (AA) was collected from adult donors; from tissue; host or cells: normal (AA) human whole blood from adult donors, 30% hematocrit
Experimental: Pro-7 and the control TD-7 were used to conduct time-dependent Hb modification (Hb adduct formation) studies using normal whole blood as previously reported. A 200 mM stock solution of each compound was made with DMSO. In a 96-well 1.2 mL polypropylene deep-well plate (Thermo Scientific, Hampshire, UK), 2.0 mM concentration of each compound was added to 600 μL of whole blood (30% hematocrit), which was then incubated at 37 °C for 24 h with shaking (at 140 rpm). A control sample was supplemented only with an equivalent volume of DMSO. At different time points (0–24 h), 50 μL aliquots of this mixture were withdrawn from each well using a multichannel pipette and added to respective tubes containing 50 μL of sodium cyanoborohydride (NaBH3CN) and sodium borohydride (NaBH4) mixture (1:1 v/v 50 mM stock) to terminate the Schiff-base reaction, fix the Schiff-base Hb adducts and reduce the free reactive aldehyde. After mixing, the tubes were stored immediately at −80 °C until ready for analysis using cation-exchange HPLC (Hitachi D-7000 Series, Hitachi Instruments, Inc. San Jose, CA, USA) for Hb-compound adduct formation. The observed Hb adducts in %Hb modification were plotted as a function of time (h).
(§1) Human normal whole blood was used to assess the degree of Hb modification and Hb oxygen affinity (P50 shift), while sickle blood was used to investigate RBC sickling inhibition. Pro-7 and the positive control TD-7 were incubated with normal whole blood suspensions. […] For the sickling inhibition study, Pro-7 and the positive control TD-7 were incubated with SS blood suspensions under hypoxic conditions (2.5% O2/97.5% N2), and aliquot blood samples were drawn at three time points (1, 3 and 6 h) and used for assessing RBC morphology. The results summarized in Table 1 and Figure 4A–C show time-dependent effects for all three pharmacodynamic activities. […] Even at the end of the 24-h experiment, Pro-7 activity was still increasing.

[2] = biological target: T1, Hb in human normal whole blood; experiment: In-vitro time-dependent oxygen equilibrium study (P50 shift); assay type: cell-based; conditions: 2 mM, normal whole blood 30% hematocrit
Experimental: An oxygen equilibrium curve study was conducted in a time-dependent manner to determine the effect and duration of Pro-7 on Hb affinity for oxygen (P50 shift) following standard procedure. Pro-7, along with the controls TD-7 and DMSO were used for the studies with normal whole blood sample (30% hematocrit). Each compound was incubated with the blood at a final concentration of 2 mM, and aliquot samples were taken at 1, 3, 6, 12 and 24 h and further incubated in IL 237 tonometer (Instrumentation Laboratories, Inc., Lexington, MA, USA) for 10 min at 37 °C, and allowed to equilibrate at oxygen tensions 6, 20, and 40 mmHg. The samples were then aspirated into a Radiometer ABL 800 Automated Blood Gas Analyzer (Copenhagen, Denmark ) to determine the pH, partial pressure of CO2 (pCO2), partial pressure of oxygen (pO2), and Hb oxygen saturation values (SO2). The measured values of pO2 (mmHg) and SO2 at each pO2 value were then subjected to a non-linear regression analysis using the program Scientist (Micromath, Salt Lake City, UT, USA) to estimate P50 as a measure of Hb oxygen affinity as previously reported.
as §1

[3] = system: SS cells (homozygous sickle cell blood); experiment: In-vitro time-dependent RBC sickling inhibition under hypoxia; assay type: cell-based, human; conditions: 2 mM, SS cells 20% hematocrit, hypoxia (4% oxygen/96% nitrogen)
Experimental: Red blood cell sickling inhibition studies with Pro-7 and the control TD-7 was conducted using previously reported procedure. Blood suspensions from subjects with homozygous SCD (hematocrit 20%) were incubated under air in the absence or presence of test compounds at 37 °C for 1 h to ensure that binding has attained equilibrium. […] Aliquot samples were fixed with 2% glutaraldehyde solution without exposure to air, and then subjected to microscopic morphological analysis.
Human normal whole blood was used to assess the degree of Hb modification and Hb oxygen affinity (P50 shift), while sickle blood was used to investigate RBC sickling inhibition. […] The results summarized in Table 1 and Figure 4A–C show time-dependent effects for all three pharmacodynamic activities. […] Even at the end of the 24-h experiment, Pro-7 activity was still increasing.

[4] = In-vitro stability in different pH buffers (aldehyde peak absorbance at 349 nm); assay type: physicochemical; conditions: for Stability (absorbance of aldehyde peak at 349 nm): 1 mM, 37 °C
Experimental: The stability of Pro-7 and the control TD-7 in different pH buffers (PBS buffer at pH 7.4, KCl·HCl buffer at pH 2.0, and Tris buffer at pH 8.0) was evaluated over time as previously reported. The ionic strength of all buffers was kept constant at 150 mM. A 200 mM stock solution of each compound was prepared using anhydrous DMSO. 1 mM solutions of each of the test compounds TD-7 and Pro-7 were prepared in duplicate for each of the three different pH buffers. […]
An in-vitro time-dependent (1–96 h) stability study of Pro-7 was conducted to inform the formulation of the prodrug. The study was conducted at three different pHs: 2.0, 7.4 and 8.0, which mimic stomach, blood and intestinal pH conditions, respectively. The presence of TD-7 or the rate of appearance of TD-7 upon dissociation of Pro-7 was monitored at 349 nm spectrophotometrically.

T1 sequence (P69905 2-142 limits assumed): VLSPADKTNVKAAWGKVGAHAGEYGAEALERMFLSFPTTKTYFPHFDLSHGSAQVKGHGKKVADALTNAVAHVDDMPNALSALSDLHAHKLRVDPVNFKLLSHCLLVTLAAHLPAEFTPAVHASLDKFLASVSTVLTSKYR
T1 sequence (P68871 2-147 partner limits assumed): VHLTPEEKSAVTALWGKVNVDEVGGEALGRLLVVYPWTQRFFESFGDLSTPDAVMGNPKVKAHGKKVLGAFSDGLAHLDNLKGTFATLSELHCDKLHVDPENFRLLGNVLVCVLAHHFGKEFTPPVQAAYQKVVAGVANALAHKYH

1-(2-(3-((6-(hydroxymethyl)pyridin-2-yl)methoxy)-5 methoxyphenyl)thiazolidin-4-yl)propan-1-one [Pro-7]
%Hb Modification (Hb Adduct) ([1]; 0 h): 0.00 ± 0.00% | %Hb Modification (Hb Adduct) ([1]; 1 h): 7.10 ± 4.40% | %Hb Modification (Hb Adduct) ([1]; 2 h): 14.30 ± 6.80% | %Hb Modification (Hb Adduct) ([1]; 4 h): 17.50 ± 7.10% | %Hb Modification (Hb Adduct) ([1]; 8 h): 29.70 ± 10.9% | %Hb Modification (Hb Adduct) ([1]; 12 h): 41.20 ± 15.8% | %Hb Modification (Hb Adduct) ([1]; 24 h): 54.80 ± 21.8% | %Hb O2 Affinity (P50 Shift) ([2]; 1 h): 6.48 ± 1.54% | %Hb O2 Affinity (P50 Shift) ([2]; 3 h): 13.57 ± 5.53% | %Hb O2 Affinity (P50 Shift) ([2]; 6 h): 21.64 ± 10.93% | %Hb O2 Affinity (P50 Shift) ([2]; 12 h): 41.04 ± 10.93% | %Hb O2 Affinity (P50 Shift) ([2]; 24 h): 43.87 ± 3.22% | %Sickling Inhibition ([3]; 1 h): 12.53% | %Sickling Inhibition ([3]; 3 h): 40.76% | %Sickling Inhibition ([3]; 6 h): 52.04% | degradation to release TD-7 (in words) ([4]; pH 2.0): very fast degradation | time for formation of TD-7 from Pro-7 to be almost completed ([4]; pH 2.0): ≤ 1 h | Stability (absorbance of aldehyde peak at 349 nm) ([4]; pH 2.0, 0 hr): 1.22 ± 0.4 | Stability (absorbance of aldehyde peak at 349 nm) ([4]; pH 2.0, 1 hr): 3.16 ± 0.2 | Stability (absorbance of aldehyde peak at 349 nm) ([4]; pH 2.0, 2 hr): 3.17 ± 0.09 | Stability (absorbance of aldehyde peak at 349 nm) ([4]; pH 2.0, 3 hr): 3.36 ± 0.03 | Stability (absorbance of aldehyde peak at 349 nm) ([4]; pH 2.0, 6 hr): 3.27 ± 0.02 | Stability (absorbance of aldehyde peak at 349 nm) ([4]; pH 2.0, 24 hr): 3.05 ± 0.00 | Stability (absorbance of aldehyde peak at 349 nm) ([4]; pH 7.4, 0 hr): 0.14 ± 0.01 | Stability (absorbance of aldehyde peak at 349 nm) ([4]; pH 7.4, 1 hr): 0.16 ± 0.00 | Stability (absorbance of aldehyde peak at 349 nm) ([4]; pH 7.4, 2 hr): 0.17 ± 0.00 | Stability (absorbance of aldehyde peak at 349 nm) ([4]; pH 7.4, 3 hr): 0.09 ± 0.09 | Stability (absorbance of aldehyde peak at 349 nm) ([4]; pH 7.4, 6 hr): 0.22 ± 0.00 | Stability (absorbance of aldehyde peak at 349 nm) ([4]; pH 7.4, 24 hr): 0.49 ± 0.00 | Stability (absorbance of aldehyde peak at 349 nm) ([4]; pH 7.4, 28 hr): 0.55 ± 0.00 | Stability (absorbance of aldehyde peak at 349 nm) ([4]; pH 7.4, 48 hr): 0.98 ± 0.02 | Stability (absorbance of aldehyde peak at 349 nm) ([4]; pH 7.4, 56 hr): 1.10 ± 0.03 | Stability (absorbance of aldehyde peak at 349 nm) ([4]; pH 7.4, 72 hr): 1.77 ± 0.07 | Stability (absorbance of aldehyde peak at 349 nm) ([4]; pH 7.4, 96 hr): 2.59 ± 0.03 | Stability (absorbance of aldehyde peak at 349 nm) ([4]; pH 8.0, 0 hr): 0.14 ± 0.00 | Stability (absorbance of aldehyde peak at 349 nm) ([4]; pH 8.0, 1 hr): 0.12 ± 0.00 | Stability (absorbance of aldehyde peak at 349 nm) ([4]; pH 8.0, 2 hr): 0.15 ± 0.00 | Stability (absorbance of aldehyde peak at 349 nm) ([4]; pH 8.0, 3 hr): 0.17 ± 0.00 | Stability (absorbance of aldehyde peak at 349 nm) ([4]; pH 8.0, 6 hr): 0.24 ± 0.01 | Stability (absorbance of aldehyde peak at 349 nm) ([4]; pH 8.0, 24 hr): 0.64 ± 0.16 | Stability (absorbance of aldehyde peak at 349 nm) ([4]; pH 8.0, 28 hr): 1.00 ± 0.05 | Stability (absorbance of aldehyde peak at 349 nm) ([4]; pH 8.0, 48 hr): 1.33 ± 0.32 | Stability (absorbance of aldehyde peak at 349 nm) ([4]; pH 8.0, 72 hr): 1.89 ± 0.04 | Stability (absorbance of aldehyde peak at 349 nm) ([4]; pH 8.0, 96 hr): 1.86 ± 0.01 | degradation to release TD-7 (in words) ([4]; pHs 7.4 and 8.0): slow degradation | time for TD-7 to be detected in a significant amount ([4]; pHs 7.4 and 8.0): ~ 6 h | time to full dissociation into TD-7 ([4]; pHs 7.4 and 8.0): approximately four days
